Read-outs that look alike come from different tables or passages of the source.
Key:
[1] = system: small cell lung cancer H526; test: in vitro cytotoxicity, PrestoBlue assay; assay type: cell-based, human
[2] = body weight changes of xenograft-bearing nude mice; assay type: in vivo; settings: H526 xenograft mice, micelle formulation; FIG. 12, panel B
Method: Athymic nude mice bearing the nu/nu gene were obtained from the National Laboratory Animal Center (Taipei, Taiwan). Male nude mice (6 weeks or older weighing 20-24 g or more) were used for all human tumor xenografts. The tested compounds were intravenously administered through tail vein. Tumor volume was determined by measuring the length x width x height (or width) with calipers. The vehicle used for the tested compounds was normal saline (0.9% NaCl isotonic solution). For tumor-bearing nude mice during the course of the experiment, the % body weight changes refer to: (the total weight on reading day/the total weight on day treatment started)×100.

[3] = system: human SCLC H526 xenografts; test: tumor growth in xenograft-bearing nude mice; assay type: in vivo; settings: micelle formulation (Kolliphor/TWEEN 80/PEG400/ethanol/D5W); BO-2768 at 20 mg/kg twice daily; FIG. 12, panel A
Method: Athymic nude mice bearing the nu/nu gene were obtained from the National Laboratory Animal Center (Taipei, Taiwan). Male nude mice (6 weeks or older weighing 20-24 g or more) were used for all human tumor xenografts. The tested compounds were intravenously administered through tail vein. Tumor volume was determined by measuring the length x width x height (or width) with calipers. […] For tumor-bearing nude mice during the course of the experiment, the % body weight changes refer to: (the total weight on reading day/the total weight on day treatment started)×100.
In all experiments, the tumor cells were subcutaneously implanted in nude mice, and the BO-2590L was administered via tail vein when the tumor size reaching approximate 100 mm^3. […]
To confirm the therapeutic activity of BO-2590L, comparative experiments carried out by known chemotherapeutic agents, such as vatanalib and cisplatin, were also performed. Briefly, the H526 xenograft-bearing mice were divided into 4 groups which were treated with vehicle, BO-2590L (10 mg/kg, QD×9), vatalanib (100 mg/kg, QD×9), and cisplatin (4 mg/kg, Q2D×3), respectively. Results are illustrated in FIG. 11.
Results are illustrated in FIGS. 12 and 13.

[4] = system: H211; test: in vitro cytotoxicity to SCLC cells; assay type: cell-based, human; settings: Table 3
Method: (§1) After a 72-hr incubation in various concentrations of the newly synthesized compounds, the cytotoxic effects of them to all cell lines were determined by the PrestoBlue®(Invitrogen) assay using a microplate spectrophotometer. Briefly, at the end of treatment, an aliquot of PrestoBlue® solution was added and then cells were incubated at 37° C. for 1-2 hr. The absorbance at 570 and 600 nm was measured with a microplate reader. […] The ICso is defined by the concentration required to inhibit tumor cell growth by 50%. Data represent the mean±STDEV of three to six independent experiments for each compound.

[5] = system: H1417; test: in vitro cytotoxicity to SCLC cells; assay type: cell-based, human; settings: Table 3
Method: as §1

[6] = system: H82; test: in vitro cytotoxicity to SCLC cells; assay type: cell-based, human; settings: Table 3
Method: as §1

[7] = system: H146; test: in vitro cytotoxicity to SCLC cells; assay type: cell-based, human; settings: Table 3
Method: as §1

[8] = system: vinblastine-resistant sub-cell line (CCRF-CEM/VBL); test: in vitro cytotoxicity, PrestoBlue assay; assay type: cell-based, human; settings: for IC50: read-out: IC50 CEM/VBL; for resistance factor (IC50 CEM/VBL vs IC50 of the parent cell line): number in brackets
Method: (§2) All representative compounds of Formulae (I-A) and (I-B) were first evaluated for their in vitro cytotoxicity to human lymphoblastic leukemia cell line (CCRF-CEM) and its vinblastine-resistant sub-cell line (CCRF-CEM/VBL) (see Table 1).
as §1

[9] = system: human lymphoblastic leukemia cell line (CCRF-CEM); test: in vitro cytotoxicity, PrestoBlue assay; assay type: cell-based; settings: read-out: IC50 CCRF-CEM
Method: as §2, §1

[10] = system: pancreatic cancer PacaS1; test: in vitro cytotoxicity, PrestoBlue assay; assay type: cell-based, human; settings: Table 2
Method: as §2, §1

[11] = system: non-small cell lung cancer H460; test: in vitro cytotoxicity, PrestoBlue assay; assay type: cell-based, human; settings: Table 2
Method: as §2, §1

[12] = system: colon cancer HCT-116; test: in vitro cytotoxicity, PrestoBlue assay; assay type: cell-based, human; settings: Table 2
Method: as §2, §1

[13] = system: pEGFP-N1 plasmid DNA; test: DNA cross-linking, alkaline agarose gel electrophoresis; assay type: biochemical; settings: 1-20 μM, 37° C., 2 hrs; FIG. 1
Method: In the present example, BO-2590, BO-2577 (Formula I-A) and BO-2698, BO-2755, BO-2762 and BO-2768 (Formula I-B) were tested for their DNA crosslinking activity, in which the cross-linking was analyzed by alkaline agarose gel electrophoresis. In brief, purified pEGFP-N1 plasmid DNA (1,500 ng) was mixed with various concentrations (1-20 μM) of the tested compounds in 40 μL binding buffer (3 mM sodium chloride/1 mM sodium phosphate, pH 7.4, and 1 mM EDTA). The reaction mixture was incubated at 37° C. for 2 hrs. At the end of reaction, the plasmid DNA was linearized by digestion with BamHI and followed by precipitation with ethanol. The DNA pellets were dissolved and denatured in alkaline buffer (0.5 N NaOH-10mM EDTA). An aliquot of 20 μL of DNA solution (1,000 ng) was mixed with 4 μL of 6× alkaline loading dye and then electrophoretically resolved on a 0.8% alkaline agarose gel with NaOH-EDTA buffer at 4° C. The electrophoresis was carried out at 18V for 22 h. After staining the gels with an ethidium bromide solution, the DNA was visualized under UV light. Results are illustrated in FIG. 1.

[14] = target: T1, VEGFR-2 (Homo sapiens, UniProt P35968); test: VEGFR-2 activation, western blotting in EA.hy926 cells; assay type: cell-based; settings: EA.hy926 cells, 12 hr; FIG. 3
T1 construct: endogenous in cells; host or cells: EA.hy926 endothelial cells
Method: In the present example, BO-2590 and BO-2577 were subject to the test of their activity in suppressing VEGFR-2 by western blotting analysis. Briefly, the endothelial EA.hy926 cells were incubated with BO-2590 or BO-2577 at various concentrations for 12 hr. The primary antibodies, anti-VEGFR-2 and anti-p-VEGFR-2, were used to blot the proteins of total VEGFR-2 and p-VEGFR-2, respectively. Results are illustrated in FIG. 3.

[15] = Homo sapiens, CCRF-CEM, 72-hr incubation, mean ± STDEV of three to six experiments
[16] = 72-hr incubation, mean ± STDEV of three to six experiments

T1 sequence (P35968 20-1356): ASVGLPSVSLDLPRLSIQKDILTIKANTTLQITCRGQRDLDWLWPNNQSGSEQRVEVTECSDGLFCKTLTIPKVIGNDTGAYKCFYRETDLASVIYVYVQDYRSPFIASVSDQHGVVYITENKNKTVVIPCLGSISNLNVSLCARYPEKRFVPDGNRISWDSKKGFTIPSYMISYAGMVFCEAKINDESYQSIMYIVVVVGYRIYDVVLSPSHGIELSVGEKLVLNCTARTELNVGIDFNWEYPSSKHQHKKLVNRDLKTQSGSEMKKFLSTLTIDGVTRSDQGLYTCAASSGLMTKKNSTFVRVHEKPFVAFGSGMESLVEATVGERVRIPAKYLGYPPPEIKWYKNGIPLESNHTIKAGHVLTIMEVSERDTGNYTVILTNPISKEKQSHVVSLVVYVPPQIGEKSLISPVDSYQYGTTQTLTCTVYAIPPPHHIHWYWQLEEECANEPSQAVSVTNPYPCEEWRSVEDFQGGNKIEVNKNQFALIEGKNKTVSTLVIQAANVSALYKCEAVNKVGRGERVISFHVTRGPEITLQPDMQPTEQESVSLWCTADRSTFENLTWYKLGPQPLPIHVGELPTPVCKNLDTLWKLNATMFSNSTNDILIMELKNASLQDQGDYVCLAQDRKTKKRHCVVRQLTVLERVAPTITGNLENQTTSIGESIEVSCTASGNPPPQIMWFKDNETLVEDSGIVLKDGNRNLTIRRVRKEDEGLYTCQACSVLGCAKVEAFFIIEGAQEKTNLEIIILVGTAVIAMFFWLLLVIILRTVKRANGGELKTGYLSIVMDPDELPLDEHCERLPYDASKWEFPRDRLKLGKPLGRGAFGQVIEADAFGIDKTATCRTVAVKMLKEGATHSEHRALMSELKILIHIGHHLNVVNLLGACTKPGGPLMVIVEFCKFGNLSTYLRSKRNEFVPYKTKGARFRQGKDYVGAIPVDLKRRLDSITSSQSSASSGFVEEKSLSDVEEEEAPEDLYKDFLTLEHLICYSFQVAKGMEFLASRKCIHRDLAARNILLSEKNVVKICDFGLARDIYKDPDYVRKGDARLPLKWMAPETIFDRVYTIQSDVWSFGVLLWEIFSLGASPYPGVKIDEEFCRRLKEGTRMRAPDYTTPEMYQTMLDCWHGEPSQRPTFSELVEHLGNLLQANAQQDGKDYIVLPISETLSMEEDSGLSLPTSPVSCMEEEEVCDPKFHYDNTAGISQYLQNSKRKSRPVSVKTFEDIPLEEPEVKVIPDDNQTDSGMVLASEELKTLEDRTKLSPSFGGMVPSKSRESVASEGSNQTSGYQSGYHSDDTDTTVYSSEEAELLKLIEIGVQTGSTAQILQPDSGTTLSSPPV

| Structure (SMILES) | resistance factor (IC50 CEM/VBL vs IC50 of the parent cell line) [8] | melting point | IC50 Paca SI [10] | formation of DNA interstrand crosslinks [13] | IC50 [8, 16] | IC50 [11] | IC50 [12] | IC50 [9, 16] | IC50 ([1]; Table 2, read-out: IC50 H526) | IC50 ([1]; Table 3, read-out: IC50 H526) | IC50 [4] | IC50 [5] | IC50 [6] | IC50 [7] | further results |
| --- | --- | --- | --- | --- | --- | --- | --- | --- | --- | --- | --- | --- | --- | --- | --- |
| CCc1c2c(nc3ccc(OC(=O)N4CCC(N5CCCCC5)CC4)cc13)-c1cc3c(c(=O)n1C2)COC(=O)[C@]3(O)CC [Irinotecan, reference compound] |  |  |  |  |  |  |  |  |  |  |  |  |  |  | IC50 ([1]; Homo sapiens, NCI-H526, Table 3, read-out: IC50 H526): 590 ± 300 nM; deleterious effects on the bodyweight of the test animals [2]: none; tumor size [3]: slowly increased in size; IC50 ([4]; Homo sapiens, NCI-H211): 8810 ± 460 nM; IC50 ([5]; Homo sapiens, NCI-H1417): 9790 ± 840 nM; IC50 ([6]; Homo sapiens, NCI-H82): 2260 ± 10 nM; IC50 ([7]; Homo sapiens, NCI-H146): 11500 ± 6530 nM |
| CCNC(=O)OCc1c(COC(=O)NCC)c2c3ccccc3c(N3CCCC3)nn2c1C [BO-2716, (3-Methyl-6-(pyrrolidin-1-yl)pyrrolo[2,1-a]phthalazine-1,2-diyl)-bis(methylene) bis(ethylcarbamate)] | 1.47 × | 140 to 142 °C |  |  |  |  |  |  |  |  |  |  |  |  | IC50 ([8]; Homo sapiens, CCRF-CEM, 72 h): 2100 ± 90 nM; IC50 ([9]; Homo sapiens, CCRF-CEM, 72 h): 1420 ± 90 nM |
| CCc1c(CO)c(CO)c2c3ccccc3c(N3CCOCC3)nn12 [BO-2577, (3-Ethyl-6-morpholinopyrrolo[2,1-a]phthalazine-1,2-diyl)-dimethanol] | 0.84 × | 180 to 182 °C | 13020 ± 930 nM | induced DNA interstrand crosslinks |  |  |  |  |  |  |  |  |  |  | IC50 [8, 15]: 2550 ± 120 nM; IC50 ([11]; Homo sapiens, NCI-H460): 18570 ± 180 nM; IC50 ([12]; Homo sapiens, HCT-116): 11500 ± 1660 nM; IC50 [9, 15]: 3040 ± 380 nM; IC50 ([1]; Homo sapiens, NCI-H526, Table 2, read-out: IC50 H526): 750 ± 120 nM; p-VEGFR-2 protein levels [14]: marked suppression in p-VEGFR-2 protein levels; total protein levels of VEGFR-2 [14]: did not significantly change the total protein levels of VEGFR-2 |
| Cc1c(CO)c(CO)c2c3ccccc3c(N3CCCC3)nn12 [BO-2686, (3-Methyl-6-(pyrrolidin-1-yl)pyrrolo[2,1-a]phthalazine-1,2 diyl)dimethanol] | 0.51 × | 160 to 162 °C | 11730 ± 1160 nM |  |  |  |  |  |  |  |  |  |  |  | IC50 ([8]; Homo sapiens, CCRF-CEM, 72 h): 470 ± 50 nM; IC50 ([11]; Homo sapiens, NCI-H460): 3870 ± 730 nM; IC50 ([12]; Homo sapiens, HCT-116): 3960 ± 60 nM; IC50 ([9]; Homo sapiens, CCRF-CEM, 72 h): 920 ± 70 nM; IC50 ([1]; Homo sapiens, NCI-H526, read-out: IC50 H526): 300 ± 40 nM |
| Cc1c(CO)c(CO)c2c3cc4ccccc4cc3c(N3CCCCC3)nn12 [BO-2755] | 1.26 × |  | 10010 ± 1640 nM | induced DNA interstrand crosslinks | 1010 ± 110 nM | 3030 ± 480 nM | 4130 ± 270 nM | 800 ± 90 nM | 120 ± 40 nM | 220 ± 60 nM | 800 ± 330 nM | 1370 ± 30 nM | 1480 ± 660 nM | 2650 ± 1390 nM |  |
| Cc1c(CO)c(CO)c2c3cc4ccccc4cc3c(N3CCOCC3)nn12 [BO-2698] | 0.86 × |  | 880 ± 260 nM | induced DNA interstrand crosslinks | 330 ± 30 nM | 1180 ± 100 nM | 1130 ± 20 nM | 380 ± 50 nM | 40 ± 10 nM | 90 ± 60 nM | 220 ± 70 nM | 370 ± 10 nM | 400 ± 160 nM | 1020 ± 160 nM |  |
| Cc1c(CO)c(CO)c2c3cc4ccccc4cc3c(N3CCCC3)nn12 [BO-2762, (3-Methyl-6-(pyrrolidin-1-yl)benzo[g]pyrrolo[2,1-α]phthalazine-1,2-diyl)dimethanol] | 0.74 × |  | 1040 ± 80 nM | induced DNA interstrand crosslinks | 140 ± 20 nM | 780 ± 240 nM | 930 ± 120 nM | 190 ± 10 nM | 50 ± 10 nM | 30 ± 10 nM | 200 ± 120 nM | 600 ± 340 nM | 410 ± 150 nM | 1010 ± 240 nM |  |
| Cc1c(CO)c(CO)c2c3cc4ccccc4cc3c(N3CCC(N4CCCCC4)CC3)nn12 [BO-2792] | 1.51 × |  |  |  | 25 ± 5 nM |  |  | 17 ± 9 nM |  | 3 ± 3 nM | 20 ± 20 nM | 250 ± 50 nM | 40 ± 10 nM | 200 ± 150 nM | deleterious effects on the bodyweight of the test animals [2]: none; tumor size [3]: as effective as irinotecan and cisplatin in reducing the tumor size |
